From publication PMC4468608, “A distinct p53 target gene set predicts for response to the selective p53–HDM2 inhibitor NVP-CGM097” (eLife, 2015)

Test system: cell lines from the Cancer Cell Line Encyclopedia (CCLE)
Test: High-throughput cell viability assay, CCLE cell line panel (n = 356)
Type: cell-based, human
Description: Cell lines were partitioned into sensitive and insensitive groups based on compound potency (IC50). […] All other cell lines were obtained from ATCC (American Type Culture Collection), DSMZ (Deutsche Sammlung von Mikroorganismen und Zellkulturen), and HSRRB (Health Science Research Resources Bank) and cultured in RPMI or Dulbecco's modified Eagle's medium plus 10% FBS (Invitrogen, Carlsbad, CA) at 37°C, 5% CO2.

[1] = PE/CA-PJ34 (clone C12), TP53 MUT
[2] = cell line A172, central_nervous_system, TP53 WT
[3] = cell line BICR 31, upper_aerodigestive_tract, TP53 MUT
[4] = cell line CAL-85-1, breast, TP53 MUT
[5] = cell line CAMA-1, breast, TP53 MUT
[6] = cell line CCK-81, large_intestine, TP53 MUT
[7] = cell line COV504, ovary, TP53 MUT
[8] = cell line Capan-2, pancreas, TP53 WT
[9] = cell line ES-2, ovary, TP53 MUT
[10] = cell line ESS-1, endometrium, TP53 MUT
[11] = cell line HEC-108, endometrium, TP53 MUT
[12] = cell line HEC-265, endometrium, TP53 WT
[13] = cell line HSC-2, upper_aerodigestive_tract, TP53 MUT
[14] = cell line Hs 618.T, lung, TP53 WT
[15] = cell line Hs 888.T, bone, TP53 WT
[16] = cell line Hs 944.T, skin, TP53 WT
[17] = cell line IM95, stomach, TP53 WT

COc1cc2c(cc1OC(C)C)[C@H](c1ccc(Cl)cc1)N(c1ccc(N(C)C[C@H]3CC[C@H](N4CCNC(=O)C4)CC3)cc1)C(=O)C2 [NVP-CFC218]
Amax (ONS-76, TP53 WT): -16.12% | sensitivity call (ONS-76, TP53 WT): insensitive (Sensitivity call for each compound was applied according to a cut-off of 4 µM for IC50 and -50% for Amax) | Amax (OV-90, TP53 MUT): -1.39% | sensitivity call (OV-90, TP53 MUT): insensitive (Sensitivity call for each compound was applied according to a cut-off of 4 µM for IC50 and -50% for Amax) | Amax (P3HR-1, TP53 MUT): -48.91% | sensitivity call (P3HR-1, TP53 MUT): insensitive (Sensitivity call for each compound was applied according to a cut-off of 4 µM for IC50 and -50% for Amax) | Amax (P31/FUJ, TP53 MUT): 4.23% | sensitivity call (P31/FUJ, TP53 MUT): insensitive (Sensitivity call for each compound was applied according to a cut-off of 4 µM for IC50 and -50% for Amax) | Amax (PA-TU-8902, TP53 MUT): 0.96% | sensitivity call (PA-TU-8902, TP53 MUT): insensitive (Sensitivity call for each compound was applied according to a cut-off of 4 µM for IC50 and -50% for Amax) | Amax [1]: 1.01% | sensitivity call [1]: insensitive (Sensitivity call for each compound was applied according to a cut-off of 4 µM for IC50 and -50% for Amax) | Amax (PK-45H, TP53 WT): -18.84% | sensitivity call (PK-45H, TP53 WT): insensitive (Sensitivity call for each compound was applied according to a cut-off of 4 µM for IC50 and -50% for Amax) | Amax (PL-21, TP53 MUT): -37.95% | sensitivity call (PL-21, TP53 MUT): insensitive (Sensitivity call for each compound was applied according to a cut-off of 4 µM for IC50 and -50% for Amax) | Amax (QGP-1, TP53 WT): 6.30% | sensitivity call (QGP-1, TP53 WT): insensitive (Sensitivity call for each compound was applied according to a cut-off of 4 µM for IC50 and -50% for Amax) | Amax (Raji, TP53 MUT): -0.41% | sensitivity call (Raji, TP53 MUT): insensitive (Sensitivity call for each compound was applied according to a cut-off of 4 µM for IC50 and -50% for Amax) | Amax (SCC-4, TP53 MUT): -11.24% | sensitivity call (SCC-4, TP53 MUT): insensitive (Sensitivity call for each compound was applied according to a cut-off of 4 µM for IC50 and -50% for Amax) | Amax (SCC-9, TP53 MUT): 10.57% | sensitivity call (SCC-9, TP53 MUT): insensitive (Sensitivity call for each compound was applied according to a cut-off of 4 µM for IC50 and -50% for Amax) | Amax (SK-N-FI, TP53 MUT): -7.80% | sensitivity call (SK-N-FI, TP53 MUT): insensitive (Sensitivity call for each compound was applied according to a cut-off of 4 µM for IC50 and -50% for Amax) | Amax (SNU-475, TP53 MUT): -7.74% | sensitivity call (SNU-475, TP53 MUT): insensitive (Sensitivity call for each compound was applied according to a cut-off of 4 µM for IC50 and -50% for Amax) | Amax (SU-DHL-8, TP53 MUT): 11.70% | sensitivity call (SU-DHL-8, TP53 MUT): insensitive (Sensitivity call for each compound was applied according to a cut-off of 4 µM for IC50 and -50% for Amax) | Amax (SW579, TP53 MUT): -2.22% | sensitivity call (SW579, TP53 MUT): insensitive (Sensitivity call for each compound was applied according to a cut-off of 4 µM for IC50 and -50% for Amax) | Amax (SW 1271, TP53 MUT): -7.26% | sensitivity call (SW 1271, TP53 MUT): insensitive (Sensitivity call for each compound was applied according to a cut-off of 4 µM for IC50 and -50% for Amax) | Amax (SW 1990, TP53 MUT): -0.73% | sensitivity call (SW 1990, TP53 MUT): insensitive (Sensitivity call for each compound was applied according to a cut-off of 4 µM for IC50 and -50% for Amax) | Amax (TE-1, TP53 MUT): -0.82% | sensitivity call (TE-1, TP53 MUT): insensitive (Sensitivity call for each compound was applied according to a cut-off of 4 µM for IC50 and -50% for Amax) | Amax (TE-5, TP53 MUT): 31.38% | sensitivity call (TE-5, TP53 MUT): insensitive (Sensitivity call for each compound was applied according to a cut-off of 4 µM for IC50 and -50% for Amax) | Amax (U-87 MG, TP53 WT): -45.86% | sensitivity call (U-87 MG, TP53 WT): insensitive (Sensitivity call for each compound was applied according to a cut-off of 4 µM for IC50 and -50% for Amax) | Amax (WM-266-4, TP53 WT): -75.96% | sensitivity call (WM-266-4, TP53 WT): sensitive (Sensitivity call for each compound was applied according to a cut-off of 4 µM for IC50 and -50% for Amax) | Amax (WM-983B, TP53 MUT): -25.79% | sensitivity call (WM-983B, TP53 MUT): insensitive (Sensitivity call for each compound was applied according to a cut-off of 4 µM for IC50 and -50% for Amax) | Amax (YKG1, TP53 MUT): -29.61% | sensitivity call (YKG1, TP53 MUT): insensitive (Sensitivity call for each compound was applied according to a cut-off of 4 µM for IC50 and -50% for Amax) | NVP- CFC218 Amax (%) [2]: -49.68% | NVP- CFC218 sensitivity call [2]: insensitive (Sensitivity call for each compound was applied according to a cut-off of 4 µM for IC50 and -50% for Amax) | NVP- CFC218 Amax (%) [3]: -33.34% | NVP- CFC218 sensitivity call [3]: insensitive (Sensitivity call for each compound was applied according to a cut-off of 4 µM for IC50 and -50% for Amax) | NVP- CFC218 Amax (%) (cell line C3A, liver, TP53 WT): -7.36% | NVP- CFC218 sensitivity call (cell line C3A, liver, TP53 WT): insensitive (Sensitivity call for each compound was applied according to a cut-off of 4 µM for IC50 and -50% for Amax) | NVP- CFC218 Amax (%) (cell line C32, skin, TP53 WT): -3.08% | NVP- CFC218 sensitivity call (cell line C32, skin, TP53 WT): insensitive (Sensitivity call for each compound was applied according to a cut-off of 4 µM for IC50 and -50% for Amax) | NVP- CFC218 Amax (%) [4]: -3.57% | NVP- CFC218 sensitivity call [4]: insensitive (Sensitivity call for each compound was applied according to a cut-off of 4 µM for IC50 and -50% for Amax) | NVP- CFC218 Amax (%) [5]: -26.17% | NVP- CFC218 sensitivity call [5]: insensitive (Sensitivity call for each compound was applied according to a cut-off of 4 µM for IC50 and -50% for Amax) | NVP- CFC218 Amax (%) [6]: 4.13% | NVP- CFC218 sensitivity call [6]: insensitive (Sensitivity call for each compound was applied according to a cut-off of 4 µM for IC50 and -50% for Amax) | NVP- CFC218 Amax (%) [7]: -21.97% | NVP- CFC218 sensitivity call [7]: insensitive (Sensitivity call for each compound was applied according to a cut-off of 4 µM for IC50 and -50% for Amax) | NVP- CFC218 Amax (%) [8]: -4.99% | NVP- CFC218 sensitivity call [8]: insensitive (Sensitivity call for each compound was applied according to a cut-off of 4 µM for IC50 and -50% for Amax) | NVP- CFC218 Amax (%) [9]: -22.65% | NVP- CFC218 sensitivity call [9]: insensitive (Sensitivity call for each compound was applied according to a cut-off of 4 µM for IC50 and -50% for Amax) | NVP- CFC218 Amax (%) [10]: 0.05% | NVP- CFC218 sensitivity call [10]: insensitive (Sensitivity call for each compound was applied according to a cut-off of 4 µM for IC50 and -50% for Amax) | NVP- CFC218 Amax (%) [11]: -7.25% | NVP- CFC218 sensitivity call [11]: insensitive (Sensitivity call for each compound was applied according to a cut-off of 4 µM for IC50 and -50% for Amax) | NVP- CFC218 Amax (%) [12]: -37.19% | NVP- CFC218 sensitivity call [12]: insensitive (Sensitivity call for each compound was applied according to a cut-off of 4 µM for IC50 and -50% for Amax) | NVP- CFC218 Amax (%) [13]: 8.13% | NVP- CFC218 sensitivity call [13]: insensitive (Sensitivity call for each compound was applied according to a cut-off of 4 µM for IC50 and -50% for Amax) | NVP- CFC218 Amax (%) [14]: -49.34% | NVP- CFC218 sensitivity call [14]: insensitive (Sensitivity call for each compound was applied according to a cut-off of 4 µM for IC50 and -50% for Amax) | NVP- CFC218 Amax (%) [15]: -45.50% | NVP- CFC218 sensitivity call [15]: insensitive (Sensitivity call for each compound was applied according to a cut-off of 4 µM for IC50 and -50% for Amax) | NVP- CFC218 Amax (%) [16]: -32.86% | NVP- CFC218 sensitivity call [16]: insensitive (Sensitivity call for each compound was applied according to a cut-off of 4 µM for IC50 and -50% for Amax) | NVP- CFC218 Amax (%) [17]: 33.79% | NVP- CFC218 sensitivity call [17]: insensitive (Sensitivity call for each compound was applied according to a cut-off of 4 µM for IC50 and -50% for Amax) | NVP- CFC218 Amax (%) (cell line JHOS-2, ovary, TP53 MUT): -32.44%
